Measured values taken from patent US20090111778A1, “2-Keto-Oxazoles as Modulators of Fatty Acid Amide Hydrolase” (priority 2005, published 2009).

Assays:
human FAAH = biological target: T1, human FAAH (Homo sapiens, UniProt O00519); assay: Assay Method 1: FAAH assay, hydrolysis of 3H-anandamide by homogenate of SK-N-MC cells transfected with human FAAH; assay type: biochemical; conditions: human FAAH; T84 or transfected SK-N-MC cell homogenate; 3H-AEA tracer 80 nM; rt 1 h; pH 9; read-out: Assay 1 IC50
T1 construct: expressed in transfected cells
T1 sequence (O00519 1-579): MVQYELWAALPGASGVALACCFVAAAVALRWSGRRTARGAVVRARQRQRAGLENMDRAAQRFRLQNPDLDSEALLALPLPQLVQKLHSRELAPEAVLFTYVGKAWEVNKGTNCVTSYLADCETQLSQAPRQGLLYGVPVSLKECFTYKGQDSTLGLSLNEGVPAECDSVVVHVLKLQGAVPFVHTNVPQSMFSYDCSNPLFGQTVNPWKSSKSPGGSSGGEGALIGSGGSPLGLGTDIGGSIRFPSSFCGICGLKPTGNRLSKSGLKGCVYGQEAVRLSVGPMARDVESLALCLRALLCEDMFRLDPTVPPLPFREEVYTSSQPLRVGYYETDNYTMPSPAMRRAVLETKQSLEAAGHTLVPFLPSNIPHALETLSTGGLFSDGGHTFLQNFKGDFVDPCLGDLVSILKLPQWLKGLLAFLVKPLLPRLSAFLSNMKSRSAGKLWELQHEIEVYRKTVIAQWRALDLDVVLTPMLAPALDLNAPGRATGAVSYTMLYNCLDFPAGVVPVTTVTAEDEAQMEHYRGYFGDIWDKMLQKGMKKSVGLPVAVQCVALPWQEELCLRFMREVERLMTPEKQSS
Outline: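 Homogenate of SK-N-MC cells stably expressing human FAAH (G418-selected clones) incubated with compound and 80 nM [1-3H-ethanolamine]anandamide for 1 h at rt. Released 3H-ethanolamine separated from substrate by activated-charcoal filtration, then counted by scintillation.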

rat FAAH = biological target: T2, rat FAAH (Rattus norvegicus, UniProt P97612); assay: Assay Method 2: FAAH assay, hydrolysis of 3H-anandamide by homogenate of SK-N-MC cells transfected with rat FAAH; assay type: biochemical; conditions: T84 or transfected SK-N-MC cell homogenate, 3H-AEA tracer 80 nM, rt 1 h, pH 9
T2 construct: expressed in transfected cells
T2 sequence (P97612 1-579): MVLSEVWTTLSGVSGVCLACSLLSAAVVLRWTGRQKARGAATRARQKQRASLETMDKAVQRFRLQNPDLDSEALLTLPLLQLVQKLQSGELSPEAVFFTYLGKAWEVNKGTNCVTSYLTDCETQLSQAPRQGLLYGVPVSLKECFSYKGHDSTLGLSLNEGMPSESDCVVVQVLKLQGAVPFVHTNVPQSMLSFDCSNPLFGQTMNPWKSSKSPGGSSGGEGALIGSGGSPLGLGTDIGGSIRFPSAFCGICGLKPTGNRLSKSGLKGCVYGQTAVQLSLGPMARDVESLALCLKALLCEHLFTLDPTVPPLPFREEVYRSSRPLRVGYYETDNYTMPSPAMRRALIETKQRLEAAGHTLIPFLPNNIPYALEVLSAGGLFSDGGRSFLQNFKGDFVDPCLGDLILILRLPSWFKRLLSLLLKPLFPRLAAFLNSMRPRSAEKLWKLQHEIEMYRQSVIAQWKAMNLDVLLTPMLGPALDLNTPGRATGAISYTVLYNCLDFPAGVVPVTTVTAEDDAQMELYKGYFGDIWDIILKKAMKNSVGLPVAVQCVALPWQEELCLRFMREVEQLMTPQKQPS
Outline: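 SK-N-MC cells stably transfected with rat FAAH cDNA (electroporation, G418 selection); homogenate hydrolyses 3H-anandamide. Reaction 1 h at rt, then filtered through activated charcoal; unbound labelled ethanolamine in filtrate counted by scintillation.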

## O=C(CCCC1CCN(Cc2cnc3ccccc3n2)CC1)c1ncco1 [Example 117, 1-Oxazol-2-yl-4-(1-quinoxalin-2-ylmethyl-piperidin-4-yl)-butan-1-one]
Human FAAH
  IC50: 175 nM
Rat FAAH
  IC50: 277 nM

## O=C(CCCC1CCN(Cc2ccc(Cl)c(C(F)(F)F)c2)CC1)c1ncco1 [Example 133, 4-[1-(4-Chloro-3-trifluoromethyl-benzyl)-piperidin-4-yl]-1-oxazol-2-yl-butan-1-one]
Human FAAH
  IC50: 460 nM
Rat FAAH
  IC50: 2000 nM

## CCN(CC)c1ccc(CN2CCC(CCCC(=O)c3ncco3)CC2)cc1 [Example 89, 4-[1-(4-Diethylamino-benzyl)-piperidin-4-yl]-1-oxazol-2-yl-butan-1-one]
Human FAAH
  IC50: 130 nM
Rat FAAH
  IC50: 700 nM

## O=C(CCCC1CCN(C(=O)Cc2ccccc2)CC1)c1ncco1 [Example 27, 1-Oxazol-2-yl-4-(1-phenylacetyl-piperidin-4-yl)-butan-1-one]
Human FAAH
  IC50: 500 nM
Rat FAAH
  IC50: 1300 nM

## O=C(CCCC1CCN(Cc2ccc3c(c2)OCO3)CC1)c1ncco1 [Example 14, 4-(1-Benzo[1,3]dioxol-5-ylmethyl-Piperidin-4-yl)-1-oxazol-2-yl-butan-1-one]
Human FAAH
  IC50: 86 nM
Rat FAAH
  IC50: 1000 nM

## O=C(CCCC1CCN(S(=O)(=O)Cc2ccccc2)CC1)c1ncco1 [Example 53, 1-Oxazol-2-yl-4-(1-phenylmethanesulfonyl-piperidin-4-yl)-butan-1-one]
Human FAAH
  IC50: 600 nM
Rat FAAH
  IC50: 800 nM

## COc1ccc2nc(Cl)c(CN3CCC(CCCC(=O)c4ncco4)CC3)cc2c1 [Example 100, 4-[1-(2-Chloro-6-methoxy-quinolin-3-ylmethyl)-piperidin-4-yl]-1-oxazol-2-yl-butan-1-one]
Human FAAH
  IC50: 30 nM
Rat FAAH
  IC50: 11 nM

## O=C(CCCC1CCN(C(=O)OCCOCc2ccccc2)CC1)c1ncco1 [Example 66, 4-(4-Oxazol-2-yl-4-oxo-butyl)-piperidine-1-carboxylic acid 2-benzyloxy-ethyl ester]
Human FAAH
  IC50: 0.7 nM
Rat FAAH
  IC50: 2 nM

## O=C(CCCC1CCN(C(=O)CCC2CCCC2)CC1)c1ncco1 [Example 32, 4-[1-(3-Cyclopentyl-propionyl)-piperidin-4-yl]-1-oxazol-2-yl-butan-1-one]
Human FAAH
  IC50: 28 nM
Rat FAAH
  IC50: 112 nM

## O=C(CCCC1CCN(Cc2ccccc2Cl)CC1)c1ncco1 [Example 84, 4-[1-(2-Chloro-benzyl)-piperidin-4-yl]-1-oxazol-2-yl-butan-1-one]
Human FAAH
  IC50: 260 nM
Rat FAAH
  IC50: 563 nM

## O=C(CCCC1CCN(Cc2cnc3ccccc3c2)CC1)c1ncco1 [Example 21, 1-Oxazol-2-yl-4-(1-quinolin-3-ylmethyl-piperidin-4-yl)-butan-1-one]
Human FAAH
  IC50: 29 nM
Rat FAAH
  IC50: 86 nM

## O=C(CCCC1CCN(Cc2c(F)cc(F)cc2F)CC1)c1ncco1 [Example 123, 1-Oxazol-2-yl-4-[1-(2,4,6-trifluoro-benzyl)-piperidin-4-yl]-butan-1-one]
Human FAAH
  IC50: 200 nM
Rat FAAH
  IC50: 280 nM

## Cc1ccc(S(=O)(=O)N2CCC(CCCC(=O)c3ncc(C(=O)O)o3)CC2)cc1 [Example 146]
Human FAAH
  IC50: 26 nM
Rat FAAH
  IC50: 14 nM

## CC(C)COC(=O)N1CCC(CCCC(=O)c2ncco2)CC1 [Example 68, 4-(4-Oxazol-2-yl-4-oxo-butyl)-piperidine-1-carboxylic acid isobutyl ester]
Human FAAH
  IC50: 10 nM
Rat FAAH
  IC50: 55 nM

## O=C(CCCC1CCN(Cc2cccnc2)CC1)c1ncco1 [Example 5, 1-Oxazol-2-yl-4-(1-pyridin-3-ylmethyl-piperidin-4-yl)-butan-1-one]
Human FAAH
  IC50: 1200 nM
Rat FAAH
  IC50: 3000 nM

## Cc1ccc2nc(Cl)c(CN3CCC(CCCC(=O)c4ncco4)CC3)cc2c1 [Example 98, 4-[1-(2-Chloro-6-methyl-quinolin-3-ylmethyl)-piperidin-4-yl]-1-oxazol-2-yl-butan-1-one]
Human FAAH
  IC50: 0.4 nM
Rat FAAH
  IC50: 7 nM

## CC(C)(C)COC(=O)N1CCC(CCCC(=O)c2ncco2)CC1 [Example 67, 4-(4-Oxazol-2-yl-4-oxo-butyl)-piperidine-1-carboxylic acid 2,2-dimethyl-propyl ester]
Human FAAH
  IC50: 50 nM
Rat FAAH
  IC50: 118 nM

## O=C(CCCC1CCN(C(=O)CCc2ccc(Cl)cc2)CC1)c1ncco1 [Example 46, 4-{1-[3-(4-Chloro-phenyl)-propionyl]-piperidin-4-yl}-1-oxazol-2-yl-butan-1-one]
Human FAAH
  IC50: 12 nM
Rat FAAH
  IC50: 3 nM

## CCc1ccc(CN2CCC(CCCC(=O)c3ncco3)CC2)cc1 [Example 71, 4-[1-(4-Ethyl-benzyl)-piperidin-4-yl]-1-oxazol-2-yl-butan-1-one]
Human FAAH
  IC50: 7 nM
Rat FAAH
  IC50: 49 nM

## O=C(CCCC1CCN(Cc2ccc3cccnc3n2)CC1)c1ncco1 [Example 116, 4-(1-[1,8]Naphthyridin-2-ylmethyl-piperidin-4-yl)-1-oxazol-2-yl-butan-1-one]
Human FAAH
  IC50: 370 nM
Rat FAAH
  IC50: 7000 nM

## O=C(CCCC1CCN(Cc2ccc(C3CCCCC3)cc2)CC1)c1ncco1 [Example 101, 4-[1-(4-Cyclohexyl-benzyl)-piperidin-4-yl]-1-oxazol-2-yl-butan-1-one]
Human FAAH
  IC50: 23 nM
Rat FAAH
  IC50: 44 nM

## O=C(CCCC1CCN(Cc2ccc3ccccc3c2)CC1)c1ncco1 [Example 20, 4-(1-Naphthalen-2-ylmethyl-piperidin-4-yl)-1-oxazol-2-yl-butan-1-one]
Human FAAH
  IC50: 8 nM
Rat FAAH
  IC50: 9 nM

## O=C(CCCC1CCN(Cc2ccc(-c3cccs3)nc2)CC1)c1ncco1 [Example 110, 1-Oxazol-2-yl-4-[1-(6-thiophen-2-yl-pyridin-3-ylmethyl)-piperidin-4-yl]-butan-1-one]
Human FAAH
  IC50: 9 nM
Rat FAAH
  IC50: 141 nM

## CC(C)C(=O)N1CCC(CCCC(=O)c2ncco2)CC1 [Example 30, 4-(1-Isobutyryl-piperidin-4-yl)-1-oxazol-2-yl-butan-1-one]
Human FAAH
  IC50: 250 nM
Rat FAAH
  IC50: 2250 nM

## O=C(CCCC1CCN(Cc2ccc(F)c(Cl)c2)CC1)c1ncco1 [Example 13, 4-[1-(3-Chloro-4-fluoro-benzyl)-piperidin-4-yl]-1-oxazol-2-yl-butan-1-one]
Human FAAH
  IC50: 50 nM
Rat FAAH
  IC50: 180 nM

## Cc1ccc(CN2CCC(CCCC(=O)c3ncco3)CC2)cc1 [Example 18, 4-[1-(4-Methyl-benzyl)-piperidin-4-yl]-1-oxazol-2-yl-butan-1-one]
Human FAAH
  IC50: 400 nM
Rat FAAH
  IC50: 1000 nM

## O=C(CCCC1CCN(Cc2ccc(F)cc2)CC1)c1ncco1 [Example 7, 4-[1-(4-Fluoro-benzyl)-piperidin-4-yl]-1-oxazol-2-yl-butan-1-one]
Human FAAH
  IC50: 850 nM
Rat FAAH
  IC50: 1000 nM

## O=C(CCCC1CCN(Cc2ccc(Oc3ccccc3)cc2)CC1)c1ncco1 [Example 15, 1-Oxazol-2-yl-4-[1-(4-phenoxy-benzyl)-piperidin-4-yl]-butan-1-one]
Human FAAH
  IC50: 4 nM
Rat FAAH
  IC50: 2.4 nM

## O=C(CCCC1CCN(C(=O)CC2CCCCC2)CC1)c1ncco1 [Example 49, 4-[1-(2-Cyclohexyl-acetyl)-piperidin-4-yl]-1-oxazol-2-yl-butan-1-one]
Human FAAH
  IC50: 100 nM
Rat FAAH
  IC50: 350 nM

## O=C(CCCC1CCN(C(=O)Cc2ccccc2Cl)CC1)c1ncco1 [Example 42, 4-{1-[2-(2-Chloro-Phenyl)-acetyl]-piperidin-4-yl}-1-oxazol-2-yl-butan-1-one]
Human FAAH
  IC50: 430 nM
Rat FAAH
  IC50: 800 nM

## O=C(CCCC1CCN(Cc2ccc(Cl)cc2)CC1)c1ncco1 [Example 9, 4-[1-(4-Chloro-benzyl)-piperidin-4-yl]-1-oxazol-2-yl-butan-1-one]
Human FAAH
  IC50: 66 nM
Rat FAAH
  IC50: 354 nM

## COC(=O)c1cccc(-c2cnc(C(=O)CCCC3CCN(Cc4ccc(C(C)C)cc4)CC3)o2)n1 [Example 147, 6-(2-[4-{1-(4-Isopropyl-benzyl)-piperidin-4-yl]-butyryl}-oxazol-5-yl)-pyridine-2-carboxylic acid methyl ester]
Human FAAH
  IC50: 18 nM
Rat FAAH
  IC50: 8 nM

## Cc1ccc(CC(=O)N2CCC(CCCC(=O)c3ncco3)CC2)cc1 [Example 38, 1-Oxazol-2-yl-4-[1-(2-p-tolyl-acetyl)-piperidin-4-yl]-butan-1-one]
Human FAAH
  IC50: 100 nM
Rat FAAH
  IC50: 100 nM
